Test results from ChEMBL document CHEMBL5518172, “Discovery of hydroxamate as a promising scaffold dually inhibiting metallo- and serine-β-lactamases” (Eur J Med Chem, 2024).

Assays:
[1] = Inhibition of recombinant metallo-beta-lactamase IMP-1 (unknown origin) expressed in Escherichia coli BL21 (DE3) cells using meropenem as substrate by spectrometric analysis; set-up: species or system Bacteria
[2] = Inhibition of recombinant serine beta lactamase OXA-48 (unknown origin) expressed in Escherichia coli BL21 (DE3) cells using meropenem as substrate by spectrometric analysis; set-up: species or system Bacteria
[3] = target: Metallo-beta-lactamase type 2 (Bacteria, UniProt C7C422); experiment: Inhibition of recombinant NDM-1 (unknown origin) expressed in Escherichia coli BL21 (DE3) cells using meropenem as substrate by spectrometric analysis
Bacteria [4] = experiment: Inhibition of recombinant metallo-beta-lactamase ImiS (unknown origin) expressed in Escherichia coli BL21 (DE3) cells using meropenem as substrate at 20 uM by spectrometric analysis relative to control
Escherichia coli [5] = experiment: Synergistic antibacterial activity against Escherichia coli BL21 (DE3) harboring serine beta lactamase OXA-48 assessed as meropenem MIC at 64 microg/ml measured after 16 hrs by CLSI protocol based broth microdilution method (reference value: 1 microg/ml); assay type: functional; details: dose 64 µg/ml
Escherichia coli [6] = experiment: Synergistic antibacterial activity against Escherichia coli BL21 (DE3) harboring serine beta lactamase KPC-2 assessed as meropenem MIC at 64 microg/ml measured after 16 hrs by CLSI protocol based broth microdilution method (reference value: 16 microg/ml); assay type: functional; details: dose 64 µg/ml
Escherichia coli [7] = experiment: Synergistic antibacterial activity against Escherichia coli BL21 (DE3) harboring metallo-beta-lactamase IMP-1 assessed as meropenem MIC at 64 microg/ml measured after 16 hrs by CLSI protocol based broth microdilution method (reference value: 64 microg/ml); assay type: functional; details: dose 64 µg/ml
[8] = target: Metallo-beta-lactamase type 2 (Bacteria) (UniProt C7C422); experiment: Inhibition of recombinant NDM-1 (unknown origin) expressed in Escherichia coli BL21 (DE3) cells using meropenem as substrate at 20 uM by spectrometric analysis relative to control
[9] = Inhibition of recombinant serine beta lactamase KPC-2 (unknown origin) expressed in Escherichia coli BL21 (DE3) cells using meropenem as substrate by spectrometric analysis; set-up: species or system Bacteria
Escherichia coli [10] = experiment: Synergistic antibacterial activity against Escherichia coli BL21 (DE3) harboring NDM-1 assessed as meropenem MIC at 64 microg/ml measured after 16 hrs by CLSI protocol based broth microdilution method (reference value: 256 microg/ml); assay type: functional; details: dose 64 µg/ml
Bacteria [11] = experiment: Inhibition of recombinant metallo-beta-lactamase IMP-1 (unknown origin) expressed in Escherichia coli BL21 (DE3) cells using cefazolin as substrate at 20 uM by spectrometric analysis relative to control
Escherichia coli [12] = experiment: Synergistic antibacterial activity against Escherichia coli BL21 (DE3) harboring serine beta lactamase KPC-2 assessed as fold decrease in meropenem MIC at 64 microg/ml measured after 16 hrs by CLSI protocol based broth microdilution method; assay type: functional; details: dose 64 µg/ml
Bacteria [13] = experiment: Inhibition of recombinant metallo-beta-lactamase L-1 (unknown origin) expressed in Escherichia coli BL21 (DE3) cells using cefazolin as substrate at 20 uM by spectrometric analysis relative to control
Escherichia coli [14] = experiment: Synergistic antibacterial activity against Escherichia coli BL21 (DE3) harboring NDM-1 assessed as fold decrease in meropenem MIC at 64 microg/ml measured after 16 hrs by CLSI protocol based broth microdilution method; assay type: functional; details: dose 64 µg/ml
Escherichia coli [15] = experiment: Synergistic antibacterial activity against Escherichia coli BL21 (DE3) harboring metallo-beta lactamase IMP-1 assessed as fold decrease in meropenem MIC at 64 microg/ml measured after 16 hrs by CLSI protocol based broth microdilution method; assay type: functional; details: dose 64 µg/ml
Bacteria [16] = experiment: Inhibition of recombinant serine beta lactamase KPC-2 (unknown origin) expressed in Escherichia coli BL21 (DE3) cells using meropenem as substrate at 20 uM by spectrometric analysis relative to control
Bacteria [17] = experiment: Inhibition of recombinant serine beta lactamase OXA-48 (unknown origin) expressed in Escherichia coli BL21 (DE3) cells using meropenem as substrate at 20 uM by spectrometric analysis relative to control
Escherichia coli [18] = experiment: Synergistic antibacterial activity against Escherichia coli BL21 (DE3) harboring serine beta lactamase OXA-48 assessed as fold decrease in meropenem MIC at 64 microg/ml measured after 16 hrs by CLSI protocol based broth microdilution method; assay type: functional; details: dose 64 µg/ml

Sequence of Metallo-beta-lactamase type 2 (C7C422 whole entry): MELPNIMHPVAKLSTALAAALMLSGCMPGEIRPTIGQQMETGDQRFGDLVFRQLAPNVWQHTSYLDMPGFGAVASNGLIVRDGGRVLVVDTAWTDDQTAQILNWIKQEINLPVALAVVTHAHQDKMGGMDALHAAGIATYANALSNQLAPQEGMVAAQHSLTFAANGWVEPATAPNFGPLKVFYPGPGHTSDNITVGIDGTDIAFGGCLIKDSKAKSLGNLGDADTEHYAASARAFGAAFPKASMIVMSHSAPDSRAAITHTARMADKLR
Sequence of Metallo-beta-lactamase type 2 (Bacteria) (C7C422 whole entry): as above

SMILES: CCOC(=O)ONC(=O)CC(c1ccccc1)c1ccccc1
- IC50 [1]: 1.64 µM
- IC50 [2]: 10 µM
- IC50 [3]: 2.24 µM
- inhibition (Bacteria [4]): < 42%
- MIC (Escherichia coli [5]): 1 µg/mL
- MIC (Escherichia coli [6]): 8 µg/mL
- MIC (Escherichia coli [7]): 64 µg/mL
- inhibition [8]: > 90%
- IC50 [9]: 13.1 µM
- MIC (Escherichia coli [10]): 128 µg/mL
- inhibition (Bacteria [11]): > 90%
- fold change (FC) (Escherichia coli [12]): 2
- inhibition (Bacteria [13]): < 42%

SMILES: CC(C)COC(=O)ONC(=O)CCc1ccccc1
- fold change (FC) (Escherichia coli [14]): 2
- fold change (FC) (Escherichia coli [15]): 2
- IC50 [1]: 12.4 µM
- IC50 [2]: 2.74 µM
- IC50 [3]: 6.01 µM
- MIC (Escherichia coli [5]): 1 µg/mL
- MIC (Escherichia coli [6]): 8 µg/mL
- inhibition (Bacteria [16]): > 90%
- MIC (Escherichia coli [7]): 32 µg/mL
- IC50 [9]: 4.56 µM
- MIC (Escherichia coli [10]): 128 µg/mL
- fold change (FC) (Escherichia coli [12]): 2
- inhibition (Bacteria [17]): > 90%

SMILES: CCOC(=O)ONC(=O)CCC1CCCCC1
- fold change (FC) (Escherichia coli [14]): 2
- fold change (FC) (Escherichia coli [15]): 2
- IC50 [1]: 3.03 µM
- IC50 [2]: 3.45 µM
- fold change (FC) (Escherichia coli [18]): 16
- IC50 [3]: 3.27 µM
- MIC (Escherichia coli [5]): 0.063 µg/mL
- MIC (Escherichia coli [6]): 16 µg/mL
- inhibition (Bacteria [16]): > 90%
- MIC (Escherichia coli [7]): 32 µg/mL
- IC50 [9]: 1.29 µM
- MIC (Escherichia coli [10]): 64 µg/mL
- inhibition (Bacteria [17]): > 90%

SMILES: CC(C)COC(=O)ONC(=O)CCCc1ccccc1
- fold change (FC) (Escherichia coli [14]): 2
- fold change (FC) (Escherichia coli [15]): 2
- IC50 [1]: 0.85 µM
- IC50 [2]: 1.03 µM
- fold change (FC) (Escherichia coli [18]): 2
- IC50 [3]: 1.87 µM
- inhibition (Bacteria [4]): < 42%
- MIC (Escherichia coli [5]): 0.5 µg/mL
- MIC (Escherichia coli [6]): 8 µg/mL
- inhibition (Bacteria [16]): > 90%
- MIC (Escherichia coli [7]): 32 µg/mL
- inhibition [8]: > 90%
- IC50 [9]: 1.47 µM
- MIC (Escherichia coli [10]): 64 µg/mL
- inhibition (Bacteria [11]): > 90%
- fold change (FC) (Escherichia coli [12]): 2
- inhibition (Bacteria [17]): > 90%
- inhibition (Bacteria [13]): < 42%

SMILES: CCOC(=O)ONC(=O)CCc1ccccc1
- fold change (FC) (Escherichia coli [14]): 2
- fold change (FC) (Escherichia coli [15]): 2
- IC50 [1]: 1.83 µM
- IC50 [2]: 8.5 µM
- fold change (FC) (Escherichia coli [18]): 2
- IC50 [3]: 5.03 µM
- MIC (Escherichia coli [5]): 0.5 µg/mL
- MIC (Escherichia coli [6]): 8 µg/mL
- MIC (Escherichia coli [7]): 32 µg/mL
- IC50 [9]: 7.7 µM
- MIC (Escherichia coli [10]): 128 µg/mL
- fold change (FC) (Escherichia coli [12]): 2

SMILES: O=C(OCc1ccccc1)ONC(=O)C1CCCCC1
- IC50 [1]: 27.2 µM
- IC50 [2]: 6.71 µM
- IC50 [3]: 41.1 µM
- MIC (Escherichia coli [5]): 1 µg/mL
- MIC (Escherichia coli [6]): 16 µg/mL
- MIC (Escherichia coli [7]): 64 µg/mL
- IC50 [9]: 41.9 µM
- MIC (Escherichia coli [10]): 128 µg/mL

SMILES: CCOC(=O)ONC(=O)C(CC)c1ccccc1 (stereo not drawn)
- fold change (FC) (Escherichia coli [14]): 2
- fold change (FC) (Escherichia coli [15]): 2
- IC50 [1]: 32.2 µM
- IC50 [2]: 32.7 µM
- IC50 [3]: 37.4 µM
- MIC (Escherichia coli [5]): 1 µg/mL
- MIC (Escherichia coli [6]): 16 µg/mL
- MIC (Escherichia coli [7]): 32 µg/mL
- IC50 [9]: 28 µM
- MIC (Escherichia coli [10]): 128 µg/mL

SMILES: O=C(CCC1CCCCC1)NOC(=O)OCc1ccccc1
- fold change (FC) (Escherichia coli [14]): 2
- fold change (FC) (Escherichia coli [15]): 2
- IC50 [1]: 6.48 µM
- IC50 [2]: 1.99 µM
- fold change (FC) (Escherichia coli [18]): 2
- IC50 [3]: 1.27 µM
- MIC (Escherichia coli [5]): 0.5 µg/mL
- MIC (Escherichia coli [6]): 16 µg/mL
- inhibition (Bacteria [16]): > 90%
- MIC (Escherichia coli [7]): 32 µg/mL
- IC50 [9]: 0.6 µM
- MIC (Escherichia coli [10]): 64 µg/mL
- inhibition (Bacteria [17]): > 90%

SMILES: CC(=O)NOC(=O)OCc1ccccc1
- fold change (FC) (Escherichia coli [14]): 2
- fold change (FC) (Escherichia coli [15]): 2
- IC50 [1]: 2.42 µM
- IC50 [2]: > 50 µM
- IC50 [3]: 3.21 µM
- inhibition (Bacteria [4]): < 42%
- MIC (Escherichia coli [5]): 1 µg/mL
- MIC (Escherichia coli [6]): 16 µg/mL
- MIC (Escherichia coli [7]): 32 µg/mL
- inhibition [8]: > 90%
- IC50 [9]: > 50 µM
- MIC (Escherichia coli [10]): 64 µg/mL
- inhibition (Bacteria [11]): > 90%
- inhibition (Bacteria [13]): < 42%

SMILES: O=C(CCc1ccccc1)NOC(=O)OCc1ccccc1
- fold change (FC) (Escherichia coli [14]): 2
- fold change (FC) (Escherichia coli [15]): 2
- IC50 [1]: 1.69 µM
- IC50 [2]: 3.09 µM
- IC50 [3]: 2.18 µM
- inhibition (Bacteria [4]): < 42%
- MIC (Escherichia coli [5]): 1 µg/mL
- MIC (Escherichia coli [6]): 8 µg/mL
- inhibition (Bacteria [16]): > 90%
- MIC (Escherichia coli [7]): 32 µg/mL
- inhibition [8]: > 90%
- IC50 [9]: 2.66 µM
- MIC (Escherichia coli [10]): 64 µg/mL
- inhibition (Bacteria [11]): > 90%
- fold change (FC) (Escherichia coli [12]): 2
- inhibition (Bacteria [17]): > 90%
- inhibition (Bacteria [13]): < 42%

SMILES: O=C(OCc1ccccc1)ONC(=O)c1ccccc1
- IC50 [1]: 2.38 µM
- IC50 [2]: > 50 µM
- IC50 [3]: 2.62 µM
- inhibition (Bacteria [4]): < 42%
- MIC (Escherichia coli [5]): 1 µg/mL
- MIC (Escherichia coli [6]): 16 µg/mL
- MIC (Escherichia coli [7]): 64 µg/mL
- inhibition [8]: > 90%
- IC50 [9]: > 50 µM
- MIC (Escherichia coli [10]): 128 µg/mL
- inhibition (Bacteria [11]): > 90%
- inhibition (Bacteria [13]): < 42%

SMILES: CCCCCOC(=O)ONC(=O)C(CC)c1ccccc1 (stereo not drawn)
- fold change (FC) (Escherichia coli [14]): 2
- fold change (FC) (Escherichia coli [15]): 2
- IC50 [1]: 23 µM
- IC50 [2]: 22.3 µM
- IC50 [3]: 35.3 µM
- MIC (Escherichia coli [5]): 1 µg/mL
- MIC (Escherichia coli [6]): 8 µg/mL
- MIC (Escherichia coli [7]): 32 µg/mL
- IC50 [9]: 17.5 µM
- MIC (Escherichia coli [10]): 128 µg/mL
- fold change (FC) (Escherichia coli [12]): 2

SMILES: CCCCCOC(=O)ONC(=O)CCc1ccccc1
- fold change (FC) (Escherichia coli [14]): 2
- fold change (FC) (Escherichia coli [15]): 2
- IC50 [1]: 1.73 µM
- IC50 [2]: 9.08 µM
- IC50 [3]: 4.72 µM
- inhibition (Bacteria [4]): < 42%
- MIC (Escherichia coli [5]): 1 µg/mL
- MIC (Escherichia coli [6]): 8 µg/mL
- MIC (Escherichia coli [7]): 16 µg/mL
- inhibition [8]: > 90%
- IC50 [9]: 4.51 µM
- MIC (Escherichia coli [10]): 64 µg/mL
- inhibition (Bacteria [11]): > 90%
- fold change (FC) (Escherichia coli [12]): 2
- inhibition (Bacteria [13]): < 42%

SMILES: O=C(CC(c1ccccc1)c1ccccc1)NOC(=O)OCc1ccccc1
- IC50 [1]: 0.65 µM
- IC50 [2]: 5.45 µM
- fold change (FC) (Escherichia coli [18]): 2
- IC50 [3]: 0.84 µM
- inhibition (Bacteria [4]): < 42%
- MIC (Escherichia coli [5]): 0.5 µg/mL
- MIC (Escherichia coli [6]): 8 µg/mL
- MIC (Escherichia coli [7]): 64 µg/mL
- inhibition [8]: > 90%
- IC50 [9]: 1.96 µM
- MIC (Escherichia coli [10]): 64 µg/mL
- inhibition (Bacteria [11]): > 90%
- fold change (FC) (Escherichia coli [12]): 2
- inhibition (Bacteria [13]): < 42%
